Several values for one entry are separate records, joined by “and”; a condition that tells them apart may be missing. Identical values can stand only once.
Experiments:
600 bp calf thymus DNA = experiment: DNA reductive alkylation by catalytically reduced aziridinyl quinones; assay type: biochemical; settings: for DNA alkylation percentage: catalytic reduction, anaerobic, pH 7.4 tris buffer, 30° C., 24 h, absorbance at 550 nm
Protocol: DNA Alkylation Screening of Series 1-9. The extent of DNA reductive alkylation was determined by catalytic reduction of the aziridinyl quinones in the presence of 600 bp calf thymus DNA. Oxidative workup afforded DNA colored blue as a result of the aminoquinone chromophore. […] The anaerobic conditions employed for DNA reductive alkylation assays is not meant to mimic the environment of tumor cells. These conditions do permit an accurate assessment of the structural requirements for DNA alkylation by the hydroquinone species. To be sure, agents incapable of akylating DNA under these ideal conditions will not do so in the typical cellular environment.
Alkylation of DNA by Reduced Indoloquinones. To a mixture of 1-2 mg of sonicated (600 bp) calf thymus DNA in 2.0 mL of 0.05 M of pH 7.4 tris buffer and 2 mg of Pd on carbon was added a five-to-one base pair equivalent amount of the indoloquinone dissolved in 0.5 mL of dimethylsulfoxide. The resulting solution was degassed under argon for 30 min., after which the mixture was purged with H2 for 10 min. The solution was then purged with argon for 10 min. and placed in a 30° C. bath for 24 h. The reaction was opened to the air and the catalyst was removed with a Millex-PF […] syringe filter. The filtrate was adjusted to 0.3 M acetate with a 3 M stock solution of pH 5.1 acetate and then diluted with two volumes of ethanol. The mixture was chilled at −20° C. for 12 h and the DNA pellet collected by centrifuging at 12,000 g for 20 min. The pellet was redissolved in water and then precipitated and centrifuged again. The resulting blue or red pellet was suspended in ethanol, centrifuged, and dried. The dried pellet was weighed and dissolved in 1 mL of double distilled water resulting in a clear colored solution with […]max˜550 nm, □˜750 M^−1 cm^−1. This is the chromophore of the aminoquinone resulting from nucleophile-mediated opening of the aziridine ring. Model 2′-chloroethyl aminoquinones for extinction coefficient determination were prepared by treatment of the indoloquinone with HCl. {Skibo, E. B. and Xing, C., Chemistry and DNA Alkylation Reactions of Aziridinyl Quinones: Development of an Efficient Alkylating Agent of the Phosphate Backbone, Biochemistry, 1998, 37, 15199-15213}.

[1] = system: NCI-H460 non-small-lung cancer cell line; experiment: NCI In Vitro Cell Line Screening, NSC H460 cell line; assay type: cell-based; settings: for GI50 / CC50: Homo sapiens; for GI50: NCI-H460, concentration for 50% growth inhibition, read-out: Log GI50 NSC H460 (converted); for CC50: NCI-H460, read-out: Log LC50 NSC H460, concentration for 50% cell kill (converted); for Log TGI NSC H460: concentration for total growth inhibition; for Log GI50 NSC H460: concentration for 50% growth inhibition
Text: Cytotoxic and Cytostatic Screening of Series 1-9.

[2] = system: National Cancer Institute 60-cell line; experiment: NCI 60-cell line in vitro screen (average cytotoxicity and cancer specificity); settings: for Average Log LC50 60-Cell Line: mean over 60 cell lines, ± value measures cancer specificity
Protocol: Cytotoxic and Cytostatic Screening of Series 1-9. […] The cytostatic parameters include GI50 and TGI, which are the concentrations of drug required for 50% growth inhibition and total growth inhibition, respectively. The cytotoxic parameter is the LC50, which is the concentration required for 50% cell kill.
4. […] Cancer specificity is measured from the ± value under the “Average Log LC50 60-Cell Line” heading of Table 5. A ± value greater than 2 indicates a greater than 100-fold higher/lower cytotoxicity in some histological cancer types compared to the mean cytotoxicity.
The DT-diaphorase levels in the National Cancer Institute 60-cell line in vitro screen have been determined and correlated with the cytotoxicity of antitumor agents activated by 2-electron reduction. {Fitzsimmons, S. A., Workman, P., Grever, M., Paull, K., Camalier, R., and Lewis, A. D., Reductase Enzyme Expression Across the National Cancer Institute Tumor Cell Line Panel: Correlation with Sensitivity To Mitomycin C and EO9, J. Natl. Cancer Inst., 1996, 88, 259-69}. Sensitive cancers usually include NSC lung and colon cancers (and to a lesser extent CNS, melanoma, and renal cancers) by virtue of their elevated DT-diaphorase levels.

B16 melanoma = experiment: animal or person; assay type: in vivo; settings: for In vivo T/C (Treated/Control) / response vs control in vivo at 2 mg/kg: T/C at day 25, <40% active; for response vs control in vivo at 2 mg/kg: Mus musculus, B16, 600 h, read-out: In vivo T/C (Treated/Control)
Text: Shown in Tables 6 and 7 are B16 melanoma syngraft assays {Griswold, D. P., Consideration of the Subcutaneously Implanted B16 Melanoma as a Screening Model for Potential Anticancer Agents, Cancer Chemother Reports, 1972, 3, 315-324} of some members of Series 1-9, as well as related compounds previously reported from this laboratory. {Xing, C. G., Wu, P., Skibo, E. B., and Dorr, R. T., Design of cancer-specific antitumor agents based on aziridlinylcyclopent[b]indoloquinones, J. Med. Chem., 2000, 43, 457-466}. Each agent was evaluated at three doses in C57/bl mice: 2, 3 or 5 mg/kg/day, on days 1, 5, and 9 after subcutaneous tumor implantation of 10^5 cells in the front flank on day 0. “Toxic” means that there was early lethality, or ≧50% lethality prior to any deaths in the control group. The treated over control values (T/C) were measured at day 25 of the study. A T/C value <40% is considered active.
In vivo Evaluation. The B-16 melanoma in C57/bl mice syngraft model was employed to determine in vivo activity. {Griswold, D. P., Consideration of the Subcutaneously Implanted B16 Melanoma as a Screening Model for Potential Anticancer Agents, Cancer Chemother Reports, 1972, 3, 315-324}. Each agent was evaluated at three doses: 2, 3 or 5 mg/kg/day, on days 1, 5, and 9 after subcutaneous tumor implantation of 10^5 cells in the front flank on day 0. “Toxic” means that there was early lethality, or ≧50% lethality prior to any deaths in the control group. The treated over control values (T/C) were measured at day 25 of the study. A T/C value<40% is considered active. […] The control was obtained with drug-free animals.

| SMILES | DNA alkylation percentage (600 bp calf thymus DNA) [%] | melting point [°C] | GI50 [1] [nM] | CC50 [1] [nM] | Log TGI NSC H460 [1] | Average Log LC50 60-Cell Line [2] | In vivo T/C (Treated/Control) (B16 melanoma; 5 mg/Kg/Day on days 1, 5, 9) | further results |
| --- | --- | --- | --- | --- | --- | --- | --- | --- |
| CC(=O)OC1CCc2c1[nH]c1c2C(=O)C(N2CC2)=CC1=O (stereo not drawn) [Compound 1b, 3-Acetoxy-7-aziridinyl-1,2,3,4-tetrahydrocyclopent[b]indole-5,8-dione] | 34 | 165 |  |  |  |  |  |  |
| CC(=O)OC1CCc2c3c(n(C(C)=O)c21)C(=O)C=C(N1CC1)C3=O (stereo not drawn) [Compound 1c, 7-Aziridinyl-3-acetoxy-4-acetyl-1,2,3,4-tetrahydrocyclopent[b]indole-5,8-dione] |  | 140 |  |  |  |  |  |  |
| CC(=O)OC1CCc2c1[nH]c1c2C(=O)C(N2CC2)=C(C)C1=O (stereo not drawn) [Compound 2b, 3-Acetoxy-7-aziridinyl-6-methyl-1,2,3,4-tetrahydrocyclopent[b]indole-5,8-dione] | 21 | 165 |  |  |  |  |  |  |
| CC(=O)OC1CCc2c3c(n(C(C)=O)c21)C(=O)C(C)=C(N1CC1)C3=O (stereo not drawn) [Compound 2c, 7-Aziridinyl-3-acetoxy-4-acetyl-6-methyl-1,2,3,4-tetrahydrocyclopent[b]indole-5,8-dione] |  | 156 |  |  |  |  |  |  |
| O=C1C(N2CC2)=CC(=O)c2c1[nH]c1c2CCC1O (stereo not drawn) [Compound 3a, 6-Aziridinyl-3-hydroxy-1,2,3,4-tetrahydrocyclopent[b]indole-5,8-dione] | 30 |  | 7.24 | 1780 | −7.24 | −5.59 ± 1.95 |  | cytostatic/cytotoxic activity versus histological cancer type (in words) [2]: significant cytostatic/cytotoxic activity |
| CC(=O)OC1CCc2c1[nH]c1c2C(=O)C(C)=C(N2CC2)C1=O (stereo not drawn) [Compound 4b] | 44 |  | 112 | 1230 | −6.17 | −4.67 ± 1.04 |  | ± value of Average Log LC50 60-Cell Line [2]: ~1 |
| CC(=O)OC1CCc2c3c(n(C(C)=O)c21)C(=O)C(N1CC1)=C(C)C3=O (stereo not drawn) [Compound 4c] | 9 |  |  |  |  | −4.60 ± 1.12 and −4.49 ± 1.31 | 15% | In vivo T/C (Treated/Control) (B16 melanoma; 2 mg/Kg/Day on days 1, 5, 9): 37%; In vivo T/C (Treated/Control) (B16 melanoma; 3 mg/Kg/Day on days 1, 5, 9): 15%; in vivo antitumor activity (in words) (B16 melanoma; 2, 3 or 5 mg/kg/day): active at all doses; in vivo toxicity (in words) (B16 melanoma; 2, 3 or 5 mg/kg/day): without any toxicity |
| CC1=C(N2CC2)C(=O)c2c(c3c(n2C)C(O)CC3)C1=O (stereo not drawn) [Compound 5a, 6-Aziridinyl-4,7-dimethyl-3-Hydroxy-1,2,3,4-tetrahydrocyclopent[b]indole-5,8-dione] | 0.3 |  | 1260 | 50100 | −5.12 |  |  | cytostatic and cytotoxic activity (−log) [1]: 5-6; cytostatic/cytotoxic activity versus histological cancer type (in words) [2]: inactive against all histological cancer types; CC50 ([2]; Homo sapiens, 60 cell, read-out: Average Log LC50 60-Cell Line (converted)): ≥ 100000 nM |
| CC(=O)OC1CCc2c3c(n(C)c21)C(=O)C(N1CC1)=C(C)C3=O (stereo not drawn) [Compound 5b] |  | 157 |  |  |  |  |  |  |
| Cn1c(CO)c(CO)c2c1C(=O)C=C(N1CC1)C2=O [Compound 6b, 5-Aziridinyl-2,3-di(hydroxymethyl)-1-methylindole-4,7-dione] | 3.8 |  | 10 |  | −8 | −5.35 ± 2.65 and −5.50 ± 2.5 | Toxic (“Toxic” means ≧ 50% lethality before any control growth deaths) | In vivo T/C (Treated/Control) (B16 melanoma; 2 mg/Kg/Day on days 1, 5, 9): Toxic (“Toxic” means ≧ 50% lethality before any control growth deaths); In vivo T/C (Treated/Control) (B16 melanoma; 3 mg/Kg/Day on days 1, 5, 9): Toxic (“Toxic” means ≧ 50% lethality before any control growth deaths) |
| CC1=C(N2CC2)C(=O)c2c([nH]c(CO)c2CO)C1=O [Compound 7a, 5-Aziridinyl-2,3-di(hydroxymethyl)-6-methylindole-4,7-dione] | 2 |  | 10 | 1170 | −7.49 | −5.54 ± 1.89 | Toxic (“Toxic” means ≧ 50% lethality before any control growth deaths) | In vivo T/C (Treated/Control) (B16 melanoma; 3 mg/Kg/Day on days 1, 5, 9): Toxic (“Toxic” means ≧ 50% lethality before any control growth deaths); response vs control in vivo at 2 mg/kg (B16 melanoma; 2 mg/Kg/Day on days 1, 5, 9): 36%; cytostatic/cytotoxic activity versus histological cancer type (in words) [2]: significant cytotoxic and cytostatic properties |
| CC1=C(N2CC2)C(=O)c2c(CO)c(CO)n(C)c2C1=O [Compound 7c, 5-Aziridinyl-2,3-di(hydroxymethyl)-1,6-dimethylindole-4,7-dione] | 0 | 165 |  |  |  |  |  | DNA alkylation (in words) (600 bp calf thymus DNA): complete loss of DNA alkylation |
| CC(=O)OCc1[nH]c2c(c1COC(C)=O)C(=O)C(C)=C(N1CC1)C2=O [Compound 8b, 6-Aziridinyl-2,3-di(acetoxymethyl)-5-methylindole-4,7-dione] | 37 |  | 35.5 |  | −6.75 and −6.71 | −4.52 ± 1.7 and −4.61 ± 2.5 | Toxic (“Toxic” means ≧ 50% lethality before any control growth deaths) | Log GI50 NSC H460 [1]: −7.63; DNA alkylation (in words) (600 bp calf thymus DNA): high DNA alkylation percentages; In vivo T/C (Treated/Control) (B16 melanoma; 3 mg/Kg/Day on days 1, 5, 9): Toxic (“Toxic” means ≧ 50% lethality before any control growth deaths); response vs control in vivo at 2 mg/kg (B16 melanoma; 2 mg/Kg/Day on days 1, 5, 9): 74% |
| CC1=C(N2CC2)C(=O)c2c(c(CO)c(CO)n2C)C1=O [Compound 8c, 6-Aziridinyl-2,3-di(hydroxymethyl)-1,5-dimethylindol-4,7-dione] | 0 |  | 38.9 | 955 | −6.66 | −4.61 ± 1.64 and −4.67 ± 2.48 | Toxic (“Toxic” means ≧ 50% lethality before any control growth deaths) | Log GI50 NSC H460 [1]: −7.27; Log LC50 NSC H460 ([1]; human): −6.21; DNA alkylation (in words) (600 bp calf thymus DNA): complete loss of DNA alkylation |
| O=C1C(N2CC2)=CC(=O)c2c1[nH]c(CO)c2CO [Compound 9a, 6-Aziridinyl-2,3-di(hydroxymethyl)indole-4,7-dione] | 3.4 |  | 138 | 11700 | −5.94 | −5.07 ± 1.43 |  |  |

Source: patent US20030139609A1, “Aziridinyl quinone antitumor agents based on indoles and cyclopent[b]indoles” (priority 2001, published 2003)
